Reference: patent US20250163044A1, “COMPOUNDS” (PSYLO PTY LTD, priority 2021, published 2025)
Where “and” joins values, the source holds several entries; their conditions need not be identical. Equal entries are not always repeated. Where two headings read alike, the source gives them in different places.

Assays:
5-HT2A receptor = molecular target: T1, 5-HT2A receptor (Homo sapiens, UniProt P28223); assay: FLIPR Ca2+ flux functional assay, agonist activity at 5-HT2A; type: cell-based
T1 construct: host or cells: HEK293
T1 sequence (P28223 whole entry): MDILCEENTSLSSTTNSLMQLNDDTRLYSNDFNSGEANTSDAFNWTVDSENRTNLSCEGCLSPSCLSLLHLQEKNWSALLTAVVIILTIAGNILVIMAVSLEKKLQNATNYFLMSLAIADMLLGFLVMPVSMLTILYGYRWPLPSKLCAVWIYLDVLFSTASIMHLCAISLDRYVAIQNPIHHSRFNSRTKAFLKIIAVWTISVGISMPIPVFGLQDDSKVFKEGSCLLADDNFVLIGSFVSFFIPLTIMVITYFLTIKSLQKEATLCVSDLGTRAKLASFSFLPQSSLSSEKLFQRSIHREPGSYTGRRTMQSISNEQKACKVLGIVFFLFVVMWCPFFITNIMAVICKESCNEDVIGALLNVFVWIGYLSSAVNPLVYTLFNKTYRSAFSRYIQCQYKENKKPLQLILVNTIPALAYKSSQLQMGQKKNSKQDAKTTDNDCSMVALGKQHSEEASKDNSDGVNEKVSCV
Experimental: (§1) Activity at 5-HT2A, 5-HT2B and 5-HT2C receptors was determined using a FLIPR Ca2+ flux assay at WuXi AppTec Co. Ltd. (Hong Kong) Discovery Biology Unit according to their standard protocols. Briefly, stably transfected cells expressing the receptor of interest (HEK293 for 5-HT2A and 5-HT2C; CHO-K1 for 5-HT2B) were grown and plated in a 384 well plate and incubated at 37° C. and 5% CO2 overnight. A 250 mM stock solution of probenecid in FLIPR calcium assay buffer (10 mL) was freshly prepared and combined with a fluorescent dye (Fluo-4 Direct) to give a final assay concentration of 2.5 mM. Reference compounds were 4-fold serially diluted and the screening compounds were 3-fold serially diluted in 100% DMSO for 10 points using Agilent Bravo, and 750 nL was added to a 384 well compound plate using Echo along with 30 μL assay buffer. The fluorescent dye was then added to the assay plate along with assay buffer to a final volume of 40 μL. The cell plate was incubated for 50 min at 37° C. and 5% CO2 and placed into the FLIPR Tetra along with the compound plate. 10 μL of references and compounds were then transferred from the compound plate into the cell plate and the fluorescent signal was read.

5-HT2B receptor = molecular target: T2, 5-HT2B receptor (Homo sapiens, UniProt P41595); assay: FLIPR Ca2+ flux functional assay, agonist activity at 5-HT2B; type: cell-based
T2 construct: host or cells: CHO-K1
T2 sequence (P41595 whole entry): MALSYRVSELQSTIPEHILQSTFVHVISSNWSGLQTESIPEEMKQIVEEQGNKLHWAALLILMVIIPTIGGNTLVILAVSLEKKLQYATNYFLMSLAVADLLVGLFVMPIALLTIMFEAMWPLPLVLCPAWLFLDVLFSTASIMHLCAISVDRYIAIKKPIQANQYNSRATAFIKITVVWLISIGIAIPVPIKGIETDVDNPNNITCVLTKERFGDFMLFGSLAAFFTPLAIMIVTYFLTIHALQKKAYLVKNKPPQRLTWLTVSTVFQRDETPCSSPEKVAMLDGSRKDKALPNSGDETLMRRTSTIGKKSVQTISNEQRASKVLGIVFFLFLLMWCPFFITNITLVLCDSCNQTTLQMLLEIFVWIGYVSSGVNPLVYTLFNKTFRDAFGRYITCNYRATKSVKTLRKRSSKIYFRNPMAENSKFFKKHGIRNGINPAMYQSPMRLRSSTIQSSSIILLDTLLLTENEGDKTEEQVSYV
Experimental: as §1

5-HT2C receptor = molecular target: T3, 5-HT2C receptor (Homo sapiens, UniProt P28335); assay: FLIPR Ca2+ flux functional assay, agonist activity at 5-HT2C; type: cell-based
T3 construct: host or cells: HEK293
T3 sequence (P28335 33-458): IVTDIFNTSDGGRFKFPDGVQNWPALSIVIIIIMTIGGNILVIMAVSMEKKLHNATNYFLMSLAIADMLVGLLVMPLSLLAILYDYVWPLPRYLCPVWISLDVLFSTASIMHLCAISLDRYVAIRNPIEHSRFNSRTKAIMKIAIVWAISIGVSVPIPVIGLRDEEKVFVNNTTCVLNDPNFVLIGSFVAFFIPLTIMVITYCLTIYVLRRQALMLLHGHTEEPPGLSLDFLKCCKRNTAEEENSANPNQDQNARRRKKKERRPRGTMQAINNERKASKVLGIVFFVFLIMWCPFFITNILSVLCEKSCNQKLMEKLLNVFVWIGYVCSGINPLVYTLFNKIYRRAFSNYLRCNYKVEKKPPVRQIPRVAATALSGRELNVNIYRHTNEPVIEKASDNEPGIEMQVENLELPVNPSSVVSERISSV
Experimental: as §1

[1] = In vivo pharmacokinetics: plasma and brain exposure after IP administration; set-up: species or system male C57BL/6 mice; conditions: for Kp at 0.083 h / Kp at 0.5 h: brain/plasma; for Cmax / Tmax / AUC(0-t): mouse, male C57BL/6 mice; for AUC(0-t): read-out: Plasma AUC0-last
Experimental: The systemic exposure of selected examples was studied in non-fasted male C57BL/6 mice weighing between 18.9-25.5 g. Mice had access to food and water ad libitum throughout the pre- and post-dose sampling period.
On the day of dosing, the formulation of each compound was prepared by dissolving solid compound in phosphate buffer saline (50 mM) using vortexing, creating colourless solutions (pH 6.4-6.5) for each compound.
Compounds were dosed to mice by IP injection (10 mL/kg dose volume via a 27G needle; n=9 mice per compound) and blood samples were collected at 5 and 30 min; 1, 2 and 4 h post-dose (n=3 mice per time point for each compound). A maximum of three blood samples were obtained from each mouse, with plasma samples being taken via submandibular bleed (approximately 120 μL). Once collected, blood samples were centrifuged immediately, supernatant plasma was removed, and stored at −80° C. until analysis by LCMS. In addition, at the 5 and 30 min and 4 h post-dose time points, the whole brain was rapidly removed from the carcass soon after the blood collection. The whole brains were blotted to remove excess blood, placed into pre-weighed polypropylene vials, and weighed. The brains were snap frozen in dry ice and subsequently stored frozen (−80° C.) until analysis.
Test compound standard solutions were diluted from a concentrated stock solution (32 mM in H2O) using 50% can in H2O (v/v) and a calibration curve was prepared in a matched matrix to the test samples.
Plasma: The plasma calibration curve was prepared by spiking aliquots of blank mouse plasma (25 μL) with test compound standard solutions (5 μL) and internal standard solution (5 μL of diazepam, 5 μg/mL in 50% acetonitrile in water). Test plasma samples (25 μL) were thawed, mixed, and then spiked with internal standard solution (5 μL). Plasma protein precipitation was performed by addition of acetonitrile (3-fold volume ratio) and thorough vortex mixing. Samples were centrifuged (RCF=9391×g) for 3 minutes and the supernatant (90 μL) was collected for analysis.
Tissue: Pre-weighed tissue samples (brain) were homogenised using a glass rod in buffer containing an EDTA/potassium fluoride solution (0.1 M/4 mg/mL) as a stabilisation cocktail to minimise the potential for ex vivo degradation (3 mL cocktail/g tissue). The tissue homogenate was briefly centrifuged (RCF=79×g) for 10 seconds to separate the foam layer before transferring an aliquot of the tissue homogenate (200 μL) to a fresh Eppendorf tube for sample extraction. Calibration standards were prepared by spiking blank brain homogenate (200 μL) with the solution standards (10 μL) and the internal standard (10 μL). Study samples were similarly prepared, except that acetonitrile (10 μL) was added instead of solution standards to maintain the same volume. Protein precipitation was carried out by the addition of a 3-fold volume of acetonitrile, followed by vortex mixing and centrifugation (RCF=9391×g) for 3 min to recover the supernatant for analysis.
Replicate analysis: Triplicate analytical replicate (ARs) samples were prepared similarly to the standards for each sample type at three concentrations (50, 500 and 2,000 ng/mL) and repeat injections of these ARs were included throughout the analytical run to assess assay performance. The extraction of the test compound from the standards and ARs were conducted as described above.

C57BL/6J mice = assay: Biotelemetry and head-twitch response (HTR) experiments; type: in vivo, Mice (C57BL/6J males); conditions: male C57BL/6 mice, SC, several doses (0.03 to 30 mg/kg)
Description: Mice (C57BL/6J males) were purchased from the Jackson Laboratory (Bar Harbor, ME, USA) at 5-6 weeks of age and allowed at least 1-2 weeks to acclimate to the NIDA, Intramural Research Program (IRP), animal research facility in Baltimore, MD, USA. The animal facility is fully accredited by the Association for the Assessment and Accreditation of Laboratory Animal Care, and all procedures were approved by the NIDA IRP Animal Care and Use Committee. Mice were initially group housed 3-5 per cage during acclimation and housed in a 12 h light-dark cycle throughout the study, with lights on at 0700 h. Food and water were available ad libitum except during testing. Cohorts of 20-24 mice were used for each test drug. The mice were subjected to experimental testing once every 1-2 weeks for 2-3 months to complete dose-effect curves and antagonist experiments. A minimum of 7 days between treatments was utilized to avoid any tolerance to effects of repeated drug administration. All drug doses represent the weight of the salt dissolved in 0.9% saline vehicle. Mice were tested first in dose-response studies to assess the effects of each compound at doses from 0.03 to 30 mg/kg s.c. and were subsequently tested in antagonist reversal studies utilizing pretreatment with M100907 and WAY100635. All experiments were conducted from 0900 to 1700 local time during the light phase, as sensitivity of rodents to other tryptamine psychedelics is diurnal, with maximal HTR observed in the middle of the light phase. Experiments were run during the light phase also to avoid any potential influence of melatonin receptor activity on HTR as melatonin and related agonists are known to reduce HTR induced by DOI in rats. For each experiment, mice were acclimated to the testing room in their home cage for at least 1 h prior to experimental sessions. Behavioral test sessions were carried out in Tru Scan mouse locomotor arenas equipped with photobeam arrays (Coulbourn Instruments, Holliston, MA, USA), which were modified with cylindrical inserts and transparent floors useful in detecting mouse HTR.
Subcutaneous Temperature Transponder Implants. At least 1 week prior to the start of the experiments, mice received s.c. implanted temperature transponders (14×2 mm, model IPTT-300, Bio Medic Data Systems, Inc., Seaford, DE, USA) under brief isoflurane anesthesia. Mice were single housed post implant for the remainder of the study to protect the transponder from removal by cage mates. Temperature was determined noninvasively using a handheld receiver that is sensitive to signals emitted from the implanted transponders.
Prior to each experiment, mouse body weight and temperature were recorded. Mice were then placed into testing chambers for acclimation. In dose-response studies, after a brief 5 min acclimation, mouse body temperature was recorded for baseline measurement, mice received s.c. injection of test substance or vehicle, and animals were returned to the testing arena for 30 min. During the session, locomotor activity was monitored via photobeam tracking of movements in the horizontal plane to yield distance traveled in centimeter. HTR was monitored by the analysis of GoPro Hero Black 7 video recordings (120 frames per sec and 960p resolution) using a commercially available software package from Clever Sys Inc. (Reston, VA, USA). 82 Post-treatment body temperature values were also recorded, and temperature data are represented as change from pretreatment baseline.
In antagonist reversal experiments, mice received a s.c. injection of either receptor antagonists or vehicle and were returned to the testing chamber for 30 min. During this period, locomotor activity was monitored to examine the potential effects of antagonist treatment on general behavior or movement. At 30 min after antagonist administration, mice were given test drug or vehicle and returned to the chambers for an additional 30 min of video recording used for analyses. […]

[2] = 0.083 h, IP 10 mg/kg, individual mouse, 10 mg/kg
[3] = 0.083 h, IP 10 mg/kg, individual mouse, 10 mg/kg, read-out: Brain Parenchyma Concentration, Individual
[4] = 0.5 h, IP 10 mg/kg, individual mouse, 10 mg/kg
[5] = 0.5 h, IP 10 mg/kg, individual mouse, 10 mg/kg, read-out: Brain Parenchyma Concentration, Individual
[6] = 4 h, IP 10 mg/kg, individual mouse
[7] = male, C57BL/6, mouse, brain, ip, 10 mg/kg, 0.083 h, n = 3, read-out: Brain Parenchyma Concentration, Mean ± SD
[8] = male, C57BL/6, mouse, brain, ip, 10 mg/kg, 0.5 h, n = 3, read-out: Brain Parenchyma Concentration, Mean ± SD
[9] = male, C57BL/6, mouse, ip, 10 mg/kg, 0.083 h, individual mouse, read-out: B:P Ratio, Individual
[10] = male, C57BL/6, mouse, ip, 10 mg/kg, 0.5 h, n = 3, read-out: B:P Ratio, Mean ± SD
[11] = male, C57BL/6, mouse, plasma, ip, 10 mg/kg, 0.083 h, n = 3, read-out: Plasma Concentration, Mean ± SD
[12] = male, C57BL/6, mouse, plasma, ip, 10 mg/kg, 0.5 h, n = 3, read-out: Plasma Concentration, Mean ± SD
[13] = HEK293 cells, Ca2+ flux, read-out: 5-HT2A EC50
[14] = CHO-K1 cells, Ca2+ flux, read-out: 5-HT2B EC50
[15] = HEK293 cells, Ca2+ flux, read-out: 5-HT2C EC50

COc1ccc2[nH]cc(CCN(C)C)c2n1 [Example P-1, 2-(5-methoxy-1H-pyrrolo[3,2-b]pyridin-3-yl)-N,N-dimethylethan-1-amine]
EC50 (5-HT2A receptor): 34.9 nM
Emax (5-HT2A receptor; HEK293 cells, Ca2+ flux): 47.7%
EC50 (5-HT2B receptor): > 10000 nM
Emax (5-HT2B receptor; CHO-K1 cells, Ca2+ flux): -1.07%
EC50 (5-HT2C receptor): 18.8 nM
Emax (5-HT2C receptor; HEK293 cells, Ca2+ flux): 74.3%
B:P Ratio, Individual [1, 2]: 0.24 and 0.34
Plasma Concentration, Individual [1, 2]: 4300 nM and 7630 nM
concentration at 0.5 h [1, 3]: 2060 nM and 1040 nM and 2560 nM
B:P Ratio, Mean ± SD ([1]; 0.083 h, IP 10 mg/kg, n = 3): 0.28 ± 0.048
B:P Ratio, Individual [1, 4]: 0.30 and 2.3 and 1.0
Plasma Concentration, Individual [1, 4]: 1030 nM and 307 nM and 420 nM
concentration at 0.5 h [1, 5]: 307 nM and 701 nM and 437 nM
Brain Parenchyma Concentration, Individual [1, 6]: <LLQ
Plasma Concentration, Individual [1, 6]: <LLQ
concentration at 0.083 h [1, 7]: 1890 ± 776 nM
concentration at 0.5 h [1, 8]: 482 ± 201 nM
Kp at 0.083 h [1, 9]: 0.27
Kp at 0.5 h [1, 10]: 1.2 ± 1
concentration at 0.083 h ([1]; male, C57BL/6, mouse, plasma, ip, 10 mg/kg, 0.083 h, individual mouse, read-out: Plasma Concentration, Individual): 7660 nM
concentration at 0.083 h [1, 11]: 6530 ± 1930 nM
concentration at 0.5 h [1, 12]: 585 ± 387 nM
Cmax ([1]; plasma, IP 10 mg/kg): 6530 nM
Tmax ([1]; plasma, IP 10 mg/kg): 5 min
AUC(0-t) ([1]; plasma, IP 10 mg/kg): 1.37 µM·h
Head-twitch response (HTR) (C57BL/6J mice): not promoting increased head-twitch response
Tolerability (temperature, locomotor activity) (C57BL/6J mice): well-tolerated

COc1nccc2[nH]cc(CCN(C)C)c12 [Example P-5, 2-(4-methoxy-1H-pyrrolo[3,2-c]pyridin-3-yl)-N,N-dimethylethan-1-amine]
Emax (5-HT2A receptor; HEK293 cells, Ca2+ flux): 56.2%
EC50 (5-HT2A receptor; [13]): 24.4 nM
Emax (5-HT2B receptor; CHO-K1 cells, Ca2+ flux): -0.87%
EC50 (5-HT2B receptor; [14]): > 10000 nM
Emax (5-HT2C receptor; HEK293 cells, Ca2+ flux): 79.1%
EC50 (5-HT2C receptor; [15]): 38.4 nM
B:P Ratio, Individual [1, 2]: 0.19 and 0.16
Plasma Concentration, Individual [1, 2]: 5880 nM and 1970 nM and 8280 nM
concentration at 0.5 h [1, 3]: 230 nM and 365 nM and 1360 nM
B:P Ratio, Individual [1, 4]: 2.5 and 2.4
Plasma Concentration, Individual [1, 4]: 985 nM and 776 nM
concentration at 0.5 h [1, 5]: 2420 nM and 1860 nM
Brain Parenchyma Concentration, Individual [1, 6]: <LLQ
Plasma Concentration, Individual [1, 6]: <LLQ
concentration at 0.083 h [1, 7]: 984 ± 540 nM
concentration at 0.5 h ([1]; male, C57BL/6, mouse, brain, ip, 10 mg/kg, 0.5 h, individual mouse, read-out: Brain Parenchyma Concentration, Individual): 1610 nM
concentration at 0.5 h [1, 8]: 1970 ± 414 nM
Kp at 0.083 h [1, 9]: 0.21
Kp at 0.083 h ([1]; male, C57BL/6, mouse, ip, 10 mg/kg, 0.083 h, n = 3, read-out: B:P Ratio, Mean ± SD): 0.19 ± 0.022
Kp at 0.5 h ([1]; male, C57BL/6, mouse, ip, 10 mg/kg, 0.5 h, individual mouse, read-out: B:P Ratio, Individual): 2
Kp at 0.5 h [1, 10]: 2.3 ± 0.26
concentration at 0.083 h [1, 11]: 5380 ± 3180 nM
concentration at 0.5 h ([1]; male, C57BL/6, mouse, plasma, ip, 10 mg/kg, 0.5 h, individual mouse, read-out: Plasma Concentration, Individual): 815 nM
concentration at 0.5 h [1, 12]: 859 ± 111 nM
Cmax ([1]; plasma, IP 10 mg/kg): 5380 nM
Tmax ([1]; plasma, IP 10 mg/kg): 5 min
AUC(0-t) ([1]; plasma, IP 10 mg/kg): 1.63 µM·h

COc1ccnc2[nH]cc(CCN(C)C)c12 [Example P-4, 2-(4-methoxy-1H-pyrrolo[2,3-b]pyridin-3-yl)-N,N-dimethylethan-1-amine]
Emax (5-HT2A receptor; HEK293 cells, Ca2+ flux): 35%
EC50 (5-HT2A receptor; [13]): 1230 nM
Emax (5-HT2B receptor; CHO-K1 cells, Ca2+ flux): -0.27%
EC50 (5-HT2B receptor; [14]): > 10000 nM
Emax (5-HT2C receptor; HEK293 cells, Ca2+ flux): 17.9%
EC50 (5-HT2C receptor; [15]): 241 nM
Head-twitch response (HTR) (C57BL/6J mice): not promoting increased head-twitch response
Tolerability (temperature, locomotor activity) (C57BL/6J mice): well-tolerated
